Reference: paper doi:10.1101/2020.07.01.182642v1 (biorxiv, 2020)
Blank lines part the entries; values can stand above or below the molecule they belong to.

Experiments:
Settings in all cases: binder
[1] = molecular target: STK38L (Homo sapiens, UniProt Q9Y2H1)
[2] = molecular target: CDK8 (Homo sapiens, UniProt P49336)
[3] = molecular target: PLK1 (Homo sapiens, UniProt P53350)
[4] = molecular target: PIM2 (Homo sapiens, UniProt Q9P1W9)
[5] = molecular target: RPS6KA1 (Homo sapiens, UniProt Q15418)
RPS6KA1, sequence (Q15418 whole entry): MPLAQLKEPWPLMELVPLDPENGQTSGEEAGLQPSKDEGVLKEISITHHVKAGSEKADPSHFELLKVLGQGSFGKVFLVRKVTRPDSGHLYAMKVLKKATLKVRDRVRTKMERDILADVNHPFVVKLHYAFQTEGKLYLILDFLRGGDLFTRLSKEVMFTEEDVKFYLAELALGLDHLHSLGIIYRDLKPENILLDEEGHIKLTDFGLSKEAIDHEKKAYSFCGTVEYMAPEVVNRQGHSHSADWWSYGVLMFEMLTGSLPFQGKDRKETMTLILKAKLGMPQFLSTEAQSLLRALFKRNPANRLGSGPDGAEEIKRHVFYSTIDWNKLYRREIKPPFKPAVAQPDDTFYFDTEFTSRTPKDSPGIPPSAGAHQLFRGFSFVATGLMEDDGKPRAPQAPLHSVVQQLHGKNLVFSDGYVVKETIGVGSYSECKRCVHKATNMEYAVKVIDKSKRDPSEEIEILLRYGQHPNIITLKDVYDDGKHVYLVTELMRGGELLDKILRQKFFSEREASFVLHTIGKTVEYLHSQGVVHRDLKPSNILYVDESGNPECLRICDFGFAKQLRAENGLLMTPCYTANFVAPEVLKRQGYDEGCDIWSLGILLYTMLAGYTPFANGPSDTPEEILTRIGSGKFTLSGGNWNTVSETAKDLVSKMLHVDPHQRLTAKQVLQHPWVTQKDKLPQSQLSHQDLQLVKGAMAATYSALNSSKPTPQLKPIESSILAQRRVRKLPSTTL

[6] = molecular target: VRK2 (Homo sapiens, UniProt Q86Y07)
VRK2, sequence (Q86Y07 whole entry): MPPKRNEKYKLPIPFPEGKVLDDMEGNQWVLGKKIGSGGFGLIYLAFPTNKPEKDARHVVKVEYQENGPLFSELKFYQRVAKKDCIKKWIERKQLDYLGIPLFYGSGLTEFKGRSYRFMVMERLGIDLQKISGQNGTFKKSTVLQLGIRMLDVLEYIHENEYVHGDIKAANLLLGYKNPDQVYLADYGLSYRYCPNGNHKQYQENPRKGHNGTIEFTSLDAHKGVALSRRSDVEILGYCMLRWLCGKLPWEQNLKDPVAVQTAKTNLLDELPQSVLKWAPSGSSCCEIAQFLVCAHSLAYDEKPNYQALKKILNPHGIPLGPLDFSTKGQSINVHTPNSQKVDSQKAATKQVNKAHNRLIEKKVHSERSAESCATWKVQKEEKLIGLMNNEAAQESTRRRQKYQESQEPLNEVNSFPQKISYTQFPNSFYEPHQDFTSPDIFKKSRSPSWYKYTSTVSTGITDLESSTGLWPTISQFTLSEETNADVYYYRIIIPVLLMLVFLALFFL

[7] = molecular target: STK10 (Homo sapiens, UniProt O94804)
STK10, sequence (O94804 whole entry): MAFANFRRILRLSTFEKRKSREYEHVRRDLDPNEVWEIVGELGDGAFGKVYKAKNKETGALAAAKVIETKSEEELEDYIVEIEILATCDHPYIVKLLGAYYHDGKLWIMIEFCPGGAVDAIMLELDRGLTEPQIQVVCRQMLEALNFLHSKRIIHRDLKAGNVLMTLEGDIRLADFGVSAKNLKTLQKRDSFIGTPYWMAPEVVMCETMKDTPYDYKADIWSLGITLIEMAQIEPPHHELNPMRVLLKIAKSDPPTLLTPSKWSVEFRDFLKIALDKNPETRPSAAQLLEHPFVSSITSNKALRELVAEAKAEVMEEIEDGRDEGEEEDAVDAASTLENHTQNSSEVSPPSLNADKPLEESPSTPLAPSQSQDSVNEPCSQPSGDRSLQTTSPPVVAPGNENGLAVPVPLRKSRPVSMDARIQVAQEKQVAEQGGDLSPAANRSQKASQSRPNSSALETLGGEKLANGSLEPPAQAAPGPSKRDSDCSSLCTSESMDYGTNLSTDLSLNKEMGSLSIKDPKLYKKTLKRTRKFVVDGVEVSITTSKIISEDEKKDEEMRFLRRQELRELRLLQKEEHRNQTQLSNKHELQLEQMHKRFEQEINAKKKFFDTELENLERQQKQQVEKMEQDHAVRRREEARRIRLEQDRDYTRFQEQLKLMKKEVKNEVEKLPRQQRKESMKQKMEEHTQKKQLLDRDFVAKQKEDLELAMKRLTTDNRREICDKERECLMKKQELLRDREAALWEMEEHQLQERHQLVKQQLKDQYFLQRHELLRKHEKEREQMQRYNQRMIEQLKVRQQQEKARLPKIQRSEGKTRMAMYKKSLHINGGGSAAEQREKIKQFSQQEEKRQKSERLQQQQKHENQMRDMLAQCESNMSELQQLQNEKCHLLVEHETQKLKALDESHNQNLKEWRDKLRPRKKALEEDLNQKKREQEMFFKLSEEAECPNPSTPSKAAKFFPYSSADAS

[8] = molecular target: T1, PHKG2 (Homo sapiens, UniProt P15735)
T1 sequence (P15735 1-406): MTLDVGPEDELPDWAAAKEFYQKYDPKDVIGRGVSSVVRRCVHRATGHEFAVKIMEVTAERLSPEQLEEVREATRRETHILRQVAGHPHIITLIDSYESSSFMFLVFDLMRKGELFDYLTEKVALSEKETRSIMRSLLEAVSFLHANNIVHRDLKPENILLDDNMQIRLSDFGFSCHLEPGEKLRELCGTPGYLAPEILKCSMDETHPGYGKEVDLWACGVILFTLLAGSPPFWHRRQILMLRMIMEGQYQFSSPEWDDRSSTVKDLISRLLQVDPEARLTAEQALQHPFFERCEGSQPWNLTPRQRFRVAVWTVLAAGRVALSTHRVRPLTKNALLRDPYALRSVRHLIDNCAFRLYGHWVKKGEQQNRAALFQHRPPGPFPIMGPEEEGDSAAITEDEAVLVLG

[9] = molecular target: T2, GAK (Homo sapiens, UniProt O14976)
T2 sequence (O14976 1-1311): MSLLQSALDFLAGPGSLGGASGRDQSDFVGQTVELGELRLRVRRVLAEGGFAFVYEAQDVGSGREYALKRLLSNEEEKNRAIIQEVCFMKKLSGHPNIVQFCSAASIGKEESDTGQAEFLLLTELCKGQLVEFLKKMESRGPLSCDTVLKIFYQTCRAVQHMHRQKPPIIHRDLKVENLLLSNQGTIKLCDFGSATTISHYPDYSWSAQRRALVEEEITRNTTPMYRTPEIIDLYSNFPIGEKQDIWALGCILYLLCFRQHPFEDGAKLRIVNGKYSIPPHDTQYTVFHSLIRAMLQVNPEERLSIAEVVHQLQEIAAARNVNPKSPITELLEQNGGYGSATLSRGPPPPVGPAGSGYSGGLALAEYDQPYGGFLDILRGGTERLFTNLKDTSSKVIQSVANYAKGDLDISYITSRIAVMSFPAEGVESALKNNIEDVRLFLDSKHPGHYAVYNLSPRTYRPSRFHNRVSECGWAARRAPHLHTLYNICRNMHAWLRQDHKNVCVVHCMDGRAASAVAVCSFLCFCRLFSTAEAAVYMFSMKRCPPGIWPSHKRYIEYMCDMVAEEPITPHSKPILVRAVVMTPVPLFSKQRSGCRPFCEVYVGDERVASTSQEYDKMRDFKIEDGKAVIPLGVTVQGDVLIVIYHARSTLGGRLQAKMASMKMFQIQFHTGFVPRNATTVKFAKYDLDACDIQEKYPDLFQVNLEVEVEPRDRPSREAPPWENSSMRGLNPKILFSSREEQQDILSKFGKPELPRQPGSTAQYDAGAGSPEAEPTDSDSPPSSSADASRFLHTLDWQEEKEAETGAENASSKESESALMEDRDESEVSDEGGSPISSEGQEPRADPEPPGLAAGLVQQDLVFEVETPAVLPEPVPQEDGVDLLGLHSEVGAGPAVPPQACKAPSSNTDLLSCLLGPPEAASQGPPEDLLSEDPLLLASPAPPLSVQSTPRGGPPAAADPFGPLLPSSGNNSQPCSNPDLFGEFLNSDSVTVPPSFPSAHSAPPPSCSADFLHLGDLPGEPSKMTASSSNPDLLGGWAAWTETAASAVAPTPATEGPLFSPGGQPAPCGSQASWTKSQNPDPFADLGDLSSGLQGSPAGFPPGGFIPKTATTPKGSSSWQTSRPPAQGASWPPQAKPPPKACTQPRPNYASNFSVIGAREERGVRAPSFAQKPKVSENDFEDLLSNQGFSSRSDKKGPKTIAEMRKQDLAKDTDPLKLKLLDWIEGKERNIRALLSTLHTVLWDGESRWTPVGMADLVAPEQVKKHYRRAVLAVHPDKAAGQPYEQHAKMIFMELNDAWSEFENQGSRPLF

[10] = molecular target: CDK2 (Homo sapiens, UniProt P24941)

PIM2, sequence (Q9P1W9 whole entry): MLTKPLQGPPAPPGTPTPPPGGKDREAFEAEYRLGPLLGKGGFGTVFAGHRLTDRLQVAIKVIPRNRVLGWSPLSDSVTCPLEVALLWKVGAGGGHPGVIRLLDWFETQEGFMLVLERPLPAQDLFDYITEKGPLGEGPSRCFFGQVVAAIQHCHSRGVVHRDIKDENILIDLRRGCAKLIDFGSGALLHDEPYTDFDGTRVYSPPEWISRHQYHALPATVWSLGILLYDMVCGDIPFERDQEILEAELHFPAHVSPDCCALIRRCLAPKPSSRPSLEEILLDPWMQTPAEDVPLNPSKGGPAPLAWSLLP
CDK8, sequence (P49336 whole entry): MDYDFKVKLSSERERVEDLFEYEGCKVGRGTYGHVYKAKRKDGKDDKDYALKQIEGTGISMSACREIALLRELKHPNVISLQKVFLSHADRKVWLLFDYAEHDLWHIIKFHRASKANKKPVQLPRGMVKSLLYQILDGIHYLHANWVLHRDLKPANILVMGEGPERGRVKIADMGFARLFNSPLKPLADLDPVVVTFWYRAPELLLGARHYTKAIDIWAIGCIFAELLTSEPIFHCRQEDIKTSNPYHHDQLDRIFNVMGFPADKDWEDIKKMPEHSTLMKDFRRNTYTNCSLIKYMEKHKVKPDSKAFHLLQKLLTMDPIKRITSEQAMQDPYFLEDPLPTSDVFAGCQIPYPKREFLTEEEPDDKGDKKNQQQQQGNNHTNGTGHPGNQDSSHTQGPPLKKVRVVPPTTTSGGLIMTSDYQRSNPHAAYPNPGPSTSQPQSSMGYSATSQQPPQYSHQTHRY
STK38L, sequence (Q9Y2H1 whole entry): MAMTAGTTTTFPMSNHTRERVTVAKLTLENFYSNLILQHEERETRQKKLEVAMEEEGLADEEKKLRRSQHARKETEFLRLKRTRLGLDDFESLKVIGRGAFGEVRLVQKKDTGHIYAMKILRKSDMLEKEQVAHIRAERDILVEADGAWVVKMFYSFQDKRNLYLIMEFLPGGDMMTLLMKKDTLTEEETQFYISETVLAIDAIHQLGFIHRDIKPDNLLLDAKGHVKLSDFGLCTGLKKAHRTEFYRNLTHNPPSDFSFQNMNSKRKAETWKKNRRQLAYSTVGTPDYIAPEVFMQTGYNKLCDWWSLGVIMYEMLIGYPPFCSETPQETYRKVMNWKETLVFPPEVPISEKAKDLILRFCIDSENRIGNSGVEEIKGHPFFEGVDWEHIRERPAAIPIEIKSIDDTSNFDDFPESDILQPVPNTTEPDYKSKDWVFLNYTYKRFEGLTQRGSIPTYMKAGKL
PLK1, sequence (P53350 whole entry): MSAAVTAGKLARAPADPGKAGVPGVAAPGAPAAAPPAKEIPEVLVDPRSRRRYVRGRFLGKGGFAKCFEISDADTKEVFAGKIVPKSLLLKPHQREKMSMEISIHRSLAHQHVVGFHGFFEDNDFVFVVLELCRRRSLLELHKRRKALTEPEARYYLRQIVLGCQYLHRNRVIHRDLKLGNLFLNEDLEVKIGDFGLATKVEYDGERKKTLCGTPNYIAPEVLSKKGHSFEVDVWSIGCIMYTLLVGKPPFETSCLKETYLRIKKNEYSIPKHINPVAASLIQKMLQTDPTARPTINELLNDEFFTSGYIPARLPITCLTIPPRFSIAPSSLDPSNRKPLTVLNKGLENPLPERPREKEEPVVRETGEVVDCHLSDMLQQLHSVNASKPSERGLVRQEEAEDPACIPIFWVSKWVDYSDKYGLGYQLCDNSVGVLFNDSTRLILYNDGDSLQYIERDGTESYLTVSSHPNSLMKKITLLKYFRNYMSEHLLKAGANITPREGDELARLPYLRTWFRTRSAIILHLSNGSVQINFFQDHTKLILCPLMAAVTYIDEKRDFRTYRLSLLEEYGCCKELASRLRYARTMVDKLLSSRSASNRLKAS

ΔTm inhibitor 2 [1]: 0.3 °C
ΔTm inhibitor 2 [2]: 0.1 °C
ΔTm inhibitor 2 [3]: 0.3 °C
ΔTm inhibitor 2 [4]: 3.6 °C
ΔTm inhibitor 2 [5]: 0.6 °C
ΔTm inhibitor 2 [6]: 0.2 °C
ΔTm inhibitor 2 [7]: 0.8 °C
ΔTm inhibitor 2 [8]: 0.2 °C
ΔTm inhibitor 2 [9]: 0.2 °C
ΔTm inhibitor 2 [10]: -0.1 °C
SMILES: CCN1/C(=C/C(C)=O)Sc2ccc(OC)cc21 [compound 2, TG003]

ΔTm inhibitor 4 [1]: 0.9 °C
ΔTm inhibitor 4 [2]: 1.9 °C
ΔTm inhibitor 4 [3]: 0.4 °C
ΔTm inhibitor 4 [4]: 2.1 °C
ΔTm inhibitor 4 [5]: 0.6 °C
ΔTm inhibitor 4 [6]: 0.0 °C
ΔTm inhibitor 4 [7]: 1.9 °C
ΔTm inhibitor 4 [8]: 1.7 °C
ΔTm inhibitor 4 [9]: 3.3 °C
ΔTm inhibitor 4 [10]: 0.3 °C
SMILES: Nc1nccc(-c2ccc3noc(-c4ccc(Cl)cc4)c3c2)n1 [compound 4, K00972]

ΔTm inhibitor 1 [1]: 0.4 °C
ΔTm inhibitor 1 [2]: 2.7 °C
ΔTm inhibitor 1 [3]: 2.0 °C
ΔTm inhibitor 1 [4]: 4.7 °C
ΔTm inhibitor 1 [5]: 5.2 °C
ΔTm inhibitor 1 [6]: 1.5 °C
ΔTm inhibitor 1 [7]: 3.3 °C
ΔTm inhibitor 1 [8]: 1.7 °C
ΔTm inhibitor 1 [9]: 7.3 °C
ΔTm inhibitor 1 [10]: 1.5 °C
SMILES: CC(=O)c1cccc(-c2cnc3ccc(NCC4CC4)nn23)c1 [compound 1, K00135]
